For 22 molecules, IC50 results are on record in patent publication US20140005163A1 (NOVARTIS AG, priority 2010, published 2014).

pIC50: −log10 of the molar value.

In general, pIC50 refers to the negative decadic logarithm of the IC50, by convention in mol/L.

One experiment deals with T1, mTOR (Homo sapiens, UniProt P42345).
T1 construct: purchased Invitrogen Corporation (Carlsbad/CA, USA) PV4753
Kind of experiment: Biochemical assay for m-TOR by TR-FRET. The note with it: 8 μM ATP, 400 nM GFP-4EBP1, 0.5 nM mTOR. A digest of the protocol:
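TR-FRET detection of pThr46 on GFP-4EBP1 (400 nM final) using Tb3+-labelled antibody (0.5 nM), added with EDTA to stop reactions. Reactions ran at rt with 0.5 nM mTOR and 8 μM ATP (final) in HEPES pH 7.5 buffer containing 10 mM MnCl2.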
(In general: Time-resolved FRET reads energy transfer from a long-lived donor to a nearby acceptor.)

The target in a further experiment is T2, PI3K gamma (Homo sapiens, UniProt P48736).
T2 construct: His tag (C); made in house; host or cells: baculovirus (pVL1393); Tn5 or TiniPro insect cells; construct from Roger Williams lab, MRC LMB
T2 sequence (P48736 144-1102 limits assumed): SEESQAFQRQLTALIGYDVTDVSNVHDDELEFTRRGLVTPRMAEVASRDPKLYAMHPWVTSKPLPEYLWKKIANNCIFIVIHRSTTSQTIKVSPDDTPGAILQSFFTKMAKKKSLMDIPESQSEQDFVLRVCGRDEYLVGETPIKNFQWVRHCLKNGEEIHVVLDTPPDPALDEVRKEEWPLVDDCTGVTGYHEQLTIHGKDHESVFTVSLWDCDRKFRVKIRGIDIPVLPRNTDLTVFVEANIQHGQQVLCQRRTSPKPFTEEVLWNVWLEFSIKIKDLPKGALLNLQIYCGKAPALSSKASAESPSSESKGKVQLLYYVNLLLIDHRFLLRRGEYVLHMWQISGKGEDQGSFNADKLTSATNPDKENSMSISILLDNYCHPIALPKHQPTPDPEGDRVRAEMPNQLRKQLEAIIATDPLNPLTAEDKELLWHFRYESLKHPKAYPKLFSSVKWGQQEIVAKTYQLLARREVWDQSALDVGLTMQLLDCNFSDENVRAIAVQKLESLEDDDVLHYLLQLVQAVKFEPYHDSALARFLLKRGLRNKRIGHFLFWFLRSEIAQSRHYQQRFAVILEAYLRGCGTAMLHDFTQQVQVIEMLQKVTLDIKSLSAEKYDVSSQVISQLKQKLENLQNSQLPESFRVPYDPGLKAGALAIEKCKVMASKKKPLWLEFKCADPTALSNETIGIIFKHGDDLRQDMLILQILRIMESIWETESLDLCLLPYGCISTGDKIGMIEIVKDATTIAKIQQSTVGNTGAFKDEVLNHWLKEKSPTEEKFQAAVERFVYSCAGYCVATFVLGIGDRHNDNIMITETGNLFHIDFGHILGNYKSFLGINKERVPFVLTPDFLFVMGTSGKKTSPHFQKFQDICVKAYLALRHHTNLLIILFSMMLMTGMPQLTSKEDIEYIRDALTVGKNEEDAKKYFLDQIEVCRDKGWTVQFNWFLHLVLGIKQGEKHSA
Kind of experiment: PI3K gamma kinase assay (Kinase-Glo luminescence). Format: biochemical. In a few lines: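 PI3Kγ (150 nM) reaction run 120 min at room temperature with phosphatidylinositol substrate (10 μg/mL) and ATP (1 μM) in Tris pH 7.5 buffer containing MgCl2, NaCl, CHAPS and DTT. Remaining ATP detected by Kinase-Glo luminescence; 8 concentrations per compound, IC50 from 4-parameter curve fitting.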
On the technique in general: In Kinase-Glo more light means more ATP remaining.

The next experiment addresses T3, PI3K delta (Homo sapiens, UniProt O00329).
T3 construct: for the full-length p110-d subunit are generated and fused by overlapping PCR; p85(iSH2) fusion partner (see partner chain) (N); His tag (C); made in house; host or cells: baculovirus; Tn5 (Trichoplusia ni) or TiniPro insect cells
Kind of experiment: PI3K delta kinase assay (Kinase-Glo luminescence). Format: biochemical. A digest of the protocol: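 Inhibition is derived from luminescent detection of unconsumed ATP. The reaction runs for one hour at ambient temperature and contains the δ isoform fusion protein, phosphatidylinositol substrate and low (1 μM) ATP. Eight compound concentrations are tested in single, and a 4-parameter logistic model is used to calculate IC50.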

T3 sequence (O00329 with tags, fused parts or gaps limits assumed): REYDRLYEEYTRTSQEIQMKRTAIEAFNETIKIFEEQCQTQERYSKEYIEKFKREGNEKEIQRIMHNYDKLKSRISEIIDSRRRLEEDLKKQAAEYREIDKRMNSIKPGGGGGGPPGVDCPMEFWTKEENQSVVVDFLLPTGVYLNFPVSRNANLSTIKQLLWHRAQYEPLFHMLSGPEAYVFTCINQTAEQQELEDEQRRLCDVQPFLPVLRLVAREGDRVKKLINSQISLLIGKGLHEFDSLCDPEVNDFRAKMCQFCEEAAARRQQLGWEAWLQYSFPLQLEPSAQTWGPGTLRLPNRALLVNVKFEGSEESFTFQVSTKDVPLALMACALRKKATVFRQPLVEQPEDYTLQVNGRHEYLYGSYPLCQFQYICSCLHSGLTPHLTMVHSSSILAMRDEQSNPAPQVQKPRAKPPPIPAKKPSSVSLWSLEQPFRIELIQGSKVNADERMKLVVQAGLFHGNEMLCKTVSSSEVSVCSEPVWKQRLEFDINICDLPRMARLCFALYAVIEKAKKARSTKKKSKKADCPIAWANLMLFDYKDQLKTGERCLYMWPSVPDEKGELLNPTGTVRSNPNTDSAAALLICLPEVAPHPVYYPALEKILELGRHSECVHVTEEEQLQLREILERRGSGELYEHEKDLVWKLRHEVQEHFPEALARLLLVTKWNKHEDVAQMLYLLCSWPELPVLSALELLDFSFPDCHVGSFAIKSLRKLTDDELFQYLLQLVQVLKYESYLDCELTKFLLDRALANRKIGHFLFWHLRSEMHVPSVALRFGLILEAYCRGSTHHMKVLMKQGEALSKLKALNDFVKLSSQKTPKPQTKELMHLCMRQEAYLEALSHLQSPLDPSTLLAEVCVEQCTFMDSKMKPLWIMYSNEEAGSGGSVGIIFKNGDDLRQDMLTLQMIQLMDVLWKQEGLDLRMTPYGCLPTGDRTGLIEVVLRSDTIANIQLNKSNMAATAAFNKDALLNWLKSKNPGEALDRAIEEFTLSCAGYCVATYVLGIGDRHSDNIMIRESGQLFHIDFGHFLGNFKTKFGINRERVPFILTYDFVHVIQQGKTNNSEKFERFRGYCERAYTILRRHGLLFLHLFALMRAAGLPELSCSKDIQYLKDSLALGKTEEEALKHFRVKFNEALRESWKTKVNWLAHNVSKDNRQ
T1 sequence (P42345 1360-2549 limits assumed): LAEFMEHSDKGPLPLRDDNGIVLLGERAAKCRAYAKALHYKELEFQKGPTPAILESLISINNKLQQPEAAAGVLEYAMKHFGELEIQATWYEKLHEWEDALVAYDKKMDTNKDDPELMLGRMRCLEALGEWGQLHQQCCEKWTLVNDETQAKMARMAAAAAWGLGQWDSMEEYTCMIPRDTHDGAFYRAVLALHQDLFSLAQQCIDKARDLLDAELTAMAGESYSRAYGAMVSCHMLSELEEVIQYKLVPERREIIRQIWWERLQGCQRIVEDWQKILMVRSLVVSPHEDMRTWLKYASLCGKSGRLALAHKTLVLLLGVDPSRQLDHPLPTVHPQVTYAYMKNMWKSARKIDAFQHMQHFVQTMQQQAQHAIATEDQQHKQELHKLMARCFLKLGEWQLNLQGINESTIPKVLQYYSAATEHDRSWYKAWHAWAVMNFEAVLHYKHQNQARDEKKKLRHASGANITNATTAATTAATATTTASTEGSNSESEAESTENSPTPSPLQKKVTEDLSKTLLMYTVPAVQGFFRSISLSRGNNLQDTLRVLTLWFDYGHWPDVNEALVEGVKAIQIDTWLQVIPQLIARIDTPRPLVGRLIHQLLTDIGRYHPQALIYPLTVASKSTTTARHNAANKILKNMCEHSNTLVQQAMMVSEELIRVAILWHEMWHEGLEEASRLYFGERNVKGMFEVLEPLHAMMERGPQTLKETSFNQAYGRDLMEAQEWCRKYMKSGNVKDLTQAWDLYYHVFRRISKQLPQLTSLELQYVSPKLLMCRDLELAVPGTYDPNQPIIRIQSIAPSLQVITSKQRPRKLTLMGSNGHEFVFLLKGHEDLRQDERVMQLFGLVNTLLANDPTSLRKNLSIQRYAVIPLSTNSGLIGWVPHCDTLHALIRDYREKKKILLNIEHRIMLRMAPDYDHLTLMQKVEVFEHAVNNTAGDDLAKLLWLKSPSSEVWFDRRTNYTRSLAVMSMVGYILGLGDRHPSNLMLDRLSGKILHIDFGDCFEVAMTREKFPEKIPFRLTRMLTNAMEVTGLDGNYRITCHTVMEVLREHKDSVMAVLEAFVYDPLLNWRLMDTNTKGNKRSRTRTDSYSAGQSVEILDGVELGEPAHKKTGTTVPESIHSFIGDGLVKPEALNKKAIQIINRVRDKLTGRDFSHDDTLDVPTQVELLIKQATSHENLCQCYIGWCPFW

Take `COc1ccc(-c2ccc3ncc4c(c3c2)n(-c2cn(C(C)C)nc2C)c(=O)n4C)cc1OC` [Example 1.5, 8-(3,4-Dimethoxy-phenyl)-1-(1-isopropyl-3-methyl-1H-pyrazol-4-yl)-3-methyl-1,3-dihydro-imidazo[4,5-c]quinolin-2-one]: the negative logarithm of the IC50 (pIC50) was 7.21 on mTOR, 6.88 on PI3K gamma and 8.15 on PI3K delta.
For `Cc1cc(-n2c(=O)n(C)c3cnc4ccc(-c5ccc(N(C)C)nc5)cc4c32)n(C)n1` [Example 4.6, 8-(6-Dimethylamino-pyridin-3-yl)-1-(2,5-dimethyl-2H-pyrazol-3-yl)-3-methyl-1,3-dihydro-imidazo[4,5-c]quinolin-2-one] the same measures were 7.38, 6.32 and 7.04.
Turning to `Cc1nn(C)cc1-n1c(=O)n(C)c2cnc3ccc(-c4ccc(N5CCC5)nc4)cc3c21` [Example 5.1, 8-(6-Azetidin-1-yl-pyridin-3-yl)-1-(1,3-dimethyl-1H-pyrazol-4-yl)-3-methyl-1,3-dihydro-imidazo[4,5-c]quinolin-2-one], the pIC50 on mTOR is 7.74; on PI3K gamma, 6.51; on PI3K delta, 6.84.
Turning to `Cc1nn(C)cc1-n1c(=O)n(C)c2cnc3ccc(-c4ccc(C(N)=O)nc4)cc3c21` [Example 14, 5-[1-(1,3-Dimethyl-1H-pyrazol-4-yl)-3-methyl-2-oxo-2,3-dihydro-1H-imidazo[4,5-c]quinolin-8-yl]-pyridine-2-carboxylic acid amide], the pIC50 on mTOR is 8.22; at PI3K gamma it was 6.67; at PI3K delta it was 7.47.
On to `CNC(=O)c1ccc(-c2ccc3ncc4c(c3c2)n(-c2c(C)nn(C)c2C)c(=O)n4C)cn1` [Example 15.2, 5-[3-Methyl-2-oxo-1-(1,3,5-trimethyl-1H-pyrazo1-4-yl)-2,3-dihydro-1H-imidazo[4,5-c]quinolin-8-yl]-pyridine-2-carboxylic acid methylamide], for which the pIC50 on mTOR was 6.47; at PI3K gamma, 6.26; at PI3K delta it was 6.09.
For `Cc1cncc(-c2ccc3ncc4c(c3c2)n(-c2cn(C)nc2C)c(=O)n4C)c1` [Example 24, 1-(1,3-Dimethyl-1H-pyrazol-4-yl)-3-methyl-8-(5-methyl-pyridin-3-yl)-1,3-dihydro-imidazo[4,5-c]quinolin-2-one] the same measures were 7.43, 6.95 and 7.39.
For `CCOc1ccc(-c2ccc3ncc4c(c3c2)n(-c2c(C)nn(C)c2C)c(=O)n4C)cc1OCC` [Example 27.2, 8-(3,4-Diethoxy-phenyl)-3-methyl-1-(1,3,5-trimethyl-1H-pyrazol-4-yl)-1,3-dihydro-imidazo[4,5-c]quinolin-2-one], in that order: 6.44, 6.86 and 7.30.
For `CCOc1ccc(-c2ccc3ncc4c(c3c2)n(-c2cn(CC)nc2C)c(=O)n4C)cc1OC` [Example 29.1, 8-(4-Ethoxy-3-methoxy-phenyl)-1-(1-ethyl-3-methyl-1H-pyrazol-4-yl)-3-methyl-1,3-dihydro-imidazo[4,5-c]quinolin-2-one], in that order: 7.59, 7.16 and 7.57.
In the case of `Cc1nn(C)cc1-n1c(=O)n(C)c2cnc3ccc(-c4cnc5ccccc5c4)cc3c21` [Example 38, 1-(1,3-Dimethyl-1H-pyrazol-4-yl)-3-methyl-8-quinolin-3-yl-1,3-dihydro-imidazo[4,5-c]quinolin-2-one], the negative logarithm of the IC50 (pIC50) is 8.22 on mTOR, 6.91 at PI3K gamma and 8.15 at PI3K delta.
For `Cc1nn(C)cc1-n1c(=O)n(C)c2cnc3ccc(-c4cccc(S(=O)(=O)N5CCCC5)c4)cc3c21` [Example 44, 1-(1,3-Dimethyl-1H-pyrazol-4-yl)-3-methyl-8-[3-(pyrrolidine-1-sulfonyl)-phenyl]-1,3-dihydro-imidazo[4,5-c]quinolin-2-one], the values for the pIC50 at mTOR, on PI3K gamma and on PI3K delta were 6.25, 6.63 and 7.55, respectively.
For `Cc1nn(C)cc1-n1c(=O)n(C)c2cnc3ccc(-c4ccc(-n5cccn5)cc4)cc3c21` [Example 51.1, 1-(1,3-Dimethyl-1H-pyrazol-4-yl)-3-methyl-8-(4-pyrazol-1-yl-phenyl)-1,3-dihydro-imidazo[4,5-c]quinolin-2-one], in that order: 7.96, 6.67 and 6.93.
For `CCOc1cncc(-c2ccc3ncc4c(c3c2)n(-c2cn(CC(=O)N(C)C)nc2C)c(=O)n4C)c1` [Example 56.2, 2-{4-[8-(5-Ethoxy-pyridin-3-yl)-3-methyl-2-oxo-2,3-dihydro-imidazo[4,5-c]quinolin-1-yl]-3-methyl-pyrazol-1-yl}-N,N-dimethyl-acetamide] the same measures were 7.28, 6.70 and 6.92.
For `CCOc1ncc(-c2ccc3ncc4c(c3c2)n(-c2cn(C)nc2C)c(=O)n4C)cc1N(C)C(C)=O` [Example 63, N-{5-[1-(1,3-Dimethyl-1H-pyrazol-4-yl)-3-methyl-2-oxo-2,3-dihydro-1H-imidazo[4,5-c]quinolin-8-yl]-2-ethoxy-pyridin-3-yl}-N-methyl-acetamide], in that order: 6.51, 6.09 and 7.70.
As for `Cc1ncc(-c2ccc3ncc4c(c3c2)n(-c2cn(C)nc2C)c(=O)n4C)cc1NS(C)(=O)=O` [Example 76, N-{5-[1-(1,3-Dimethyl-1H-pyrazol-4-yl)-3-methyl-2-oxo-2,3-dihydro-1H-imidazo[4,5-c]quinolin-8-yl]-2-methyl-pyridin-3-yl}-methanesulfonamide], the pIC50 at mTOR is 8.30; on PI3K gamma, 7.02; at PI3K delta it was 8.52.
Consider `COC(=O)c1ccc(-c2ccc3ncc4c(c3c2)n(-c2cn(C)nc2C)c(=O)n4C)cn1` [Example 100, 5-[1-(1,3-Dimethyl-1H-pyrazol-4-yl)-3-methyl-2-oxo-2,3-dihydro-1H-imidazo[4,5-c]quinolin-8-yl]-pyridine-2-carboxylic acid methyl ester], for which the pIC50 on mTOR was 8.22; at PI3K gamma it was 6.54; at PI3K delta, 7.03.
Consider `COCc1ccc(-c2ccc3ncc4c(c3c2)n(-c2cn(C(C)C)nc2C)c(=O)n4C)cn1` [Example 105, 1-(1-Isopropyl-3-methyl-1H-pyrazol-4-yl)-8-(6-methoxymethyl-pyridin-3-yl)-3-methyl-1,3-dihydro-imidazo[4,5-c]quinolin-2-one], for which the pIC50 on mTOR was 7.02; on PI3K gamma, 6.51; at PI3K delta it was 7.28.
For `Cc1nn(C)cc1-n1c(=O)n(C)c2cnc3ccc(-c4ccc(OCCCO)nc4)cc3c21` [Example 108, 1-(1,3-Dimethyl-1H-pyrazol-4-yl)-8-[6-(3-hydroxy-propoxy)-pyridin-3-yl]-3-methyl-1,3-dihydro-imidazo[4,5-c]quinolin-2-one], in that order: 7.22, 6.27 and 6.25.
For `COc1ccc(-c2ccc3ncc4[nH]c(=O)n(-c5cn(C)nc5C)c4c3c2)cn1` [Example 109, 1-(1,3-Dimethyl-1H-pyrazol-4-yl)-8-(6-methoxy-pyridin-3-yl)-1,3-dihydro-imidazo[4,5-c]quinolin-2-one] the same measures were 7.96, 6.54 and 7.72.
For the molecule `Cc1nn(C)cc1-n1c(=O)n(C)c2cnc3ccc(-c4cncc(C5(C#N)CCC5)c4)cc3c21` [Example 221.1, 1-{5-[1-(1,3-Dimethyl-1H-pyrazol-4-yl)-3-methyl-2-oxo-2,3-dihydro-1H-imidazo[4,5-c]quinolin-8-yl]-pyridin-3-yl}-cyclobutanecarbonitrile], the pIC50 on mTOR was 7.49; on PI3K delta, 8.22.
For `CCN1C(=O)OCc2ncc(-c3ccc4ncc5c(c4c3)n(-c3cn(C)nc3C)c(=O)n5C)cc21` [Example 237, 1-(1,3-Dimethyl-1H-pyrazol-4-yl)-8-(1-ethyl-2-oxo-1,4-dihydro-2H-pyrido[3,2-d][1,3]oxazin-7-yl)-3-methyl-1,3-dihydro-imidazo[4,5-c]quinolin-2-one] the same measures were 7.15 and 8.05.
For `CCn1c(=O)n(-c2cn(C)nc2C)c2c3cc(-c4cncc(N)c4)ccc3ncc21` [Example 245, 8-(5-Amino-pyridin-3-yl)-1-(1,3-dimethyl-1H-pyrazol-4-yl)-3-ethyl-1,3-dihydro-imidazo[4,5-c]quinolin-2-one], in that order: 7.12 and 7.52.
For `Cc1nn(CC(=O)N2CCC2)cc1-n1c(=O)n(C)c2cnc3ccc(-c4cnc(N5CCCC5)nc4)cc3c21` [Example 247.2, 1-[1-(2-Azetidin-1-yl-2-oxo-ethyl)-3-methyl-1H-pyrazol-4-yl]-3-methyl-8-(2-pyrrolidin-1-yl-pyrimidin-5-yl)-1,3-dihydro-imidazo[4,5-c]quinolin-2-one], in that order: 7.92 and 6.10.
